# Results taken from patent publication US20230398130A1, “METHODS AND COMPOSITIONS FOR DIFFERENTIATING STEM CELLS” (Massachusetts Institute of Technology, priority 2020, published 2023).
# Structures can show the parent of a compound that is named as a salt.
# How the values were obtained:
# ISC-enriched organoids [1] = assay: Primary screen, 384-well 2.5-D organoid differentiation (ENR+CD, 6 days): basal lysozyme secretion (LYZ.NS); assay type: cell-based, murine; details: primary screen; for Dose.FC.LYZ.NS: FC vs plate median; for Z.LYZ.NS: standard z score; for SSMD.LYZ.NS: strictly standardized mean difference
# Source text: (§1) High-throughput screening.
# ISC-enriched organoids [2] = assay: Primary screen, 384-well 2.5-D organoid differentiation (ENR+CD, 6 days): carbachol-induced lysozyme secretion (LYZ.S); assay type: cell-based, murine; details: primary screen; for Dose.FC.LYZ.S: FC vs plate median; for Z.LYZ.S: standard z score; for SSMD.LYZ.S: strictly standardized mean difference
# Source text: as §1
# ISC-enriched organoids [3] = assay: Primary screen, 384-well 2.5-D organoid differentiation (ENR+CD, 6 days, Target Selective Inhibitor Library, vs whole-plate median): ATP (CellTiter-Glo 3D, CTG); details: primary screen; for Dose.FC.CTG: FC vs plate median; for Z.CTG: standard z score; for SSMD.CTG: strictly standardized mean difference
# [4] = 1st of the 4 dose lines of the treatment (dose not given)
# [5] = 2nd of the 4 dose lines of the treatment (dose not given)
# [6] = 3rd of the 4 dose lines of the treatment (dose not given)
# [7] = 4th of the 4 dose lines of the treatment (dose not given)
SMILES,SSMD.LYZ.NS (ISC-enriched organoids [1]; [4]),SSMD.LYZ.NS (ISC-enriched organoids [1]; [5]),SSMD.LYZ.NS (ISC-enriched organoids [1]; [6]),SSMD.LYZ.NS (ISC-enriched organoids [1]; [7]),Z.LYZ.S (ISC-enriched organoids [2]; [4]),Z.LYZ.S (ISC-enriched organoids [2]; [5]),Z.LYZ.S (ISC-enriched organoids [2]; [6]),Z.LYZ.S (ISC-enriched organoids [2]; [7]),SSMD.LYZ.S (ISC-enriched organoids [2]; [4]),SSMD.LYZ.S (ISC-enriched organoids [2]; [5]),SSMD.LYZ.S (ISC-enriched organoids [2]; [6]),SSMD.LYZ.S (ISC-enriched organoids [2]; [7]),Z.CTG (ISC-enriched organoids [3]; Dose 0.08 uM),Z.CTG (ISC-enriched organoids [3]; Dose 0.40 uM),Z.CTG (ISC-enriched organoids [3]; Dose 2.00 uM),Z.CTG (ISC-enriched organoids [3]; Dose 10.00 uM),SSMD.CTG (ISC-enriched organoids [3]; [4]),SSMD.CTG (ISC-enriched organoids [3]; [5]),SSMD.CTG (ISC-enriched organoids [3]; [6]),SSMD.CTG (ISC-enriched organoids [3]; [7]),further results
NC(=O)c1ccc(I)c([N+](=O)[O-])c1 [Iniparib (BSI-201)],0.375,0.003,0.109,−0.163,0.205,0.229,−0.006,−0.062,0.148,0.247,−0.005,−0.070,0.810,0.432,0.375,0.583,0.883,0.347,0.475,0.721,Dose.FC.LYZ.NS (ISC-enriched organoids [1]; Dose 0.08 uM): 0.042 log 2 fold change; Z.LYZ.NS (ISC-enriched organoids [1]; Dose 0.08 uM): 0.364; Dose.FC.LYZ.NS (ISC-enriched organoids [1]; Dose 0.40 uM): 0.000 log 2 fold change; Z.LYZ.NS (ISC-enriched organoids [1]; Dose 0.40 uM): 0.003; Dose.FC.LYZ.NS (ISC-enriched organoids [1]; Dose 2.00 uM): 0.016 log 2 fold change; Z.LYZ.NS (ISC-enriched organoids [1]; Dose 2.00 uM): 0.138; Dose.FC.LYZ.NS (ISC-enriched organoids [1]; Dose 10.00 uM): −0.016 log 2 fold change; Z.LYZ.NS (ISC-enriched organoids [1]; Dose 10.00 uM): −0.139; Dose.FC.LYZ.S (ISC-enriched organoids [2]; Dose 0.08 uM): 0.032 log 2 fold change; Dose.FC.LYZ.S (ISC-enriched organoids [2]; Dose 0.40 uM): 0.035 log 2 fold change; Dose.FC.LYZ.S (ISC-enriched organoids [2]; Dose 2.00 uM): −0.001 log 2 fold change; Dose.FC.LYZ.S (ISC-enriched organoids [2]; Dose 10.00 uM): −0.010 log 2 fold change; Dose.FC.CTG (ISC-enriched organoids [3]; Dose 0.08 uM): 0.339 log 2 fold change; Dose.FC.CTG (ISC-enriched organoids [3]; Dose 0.40 uM): 0.181 log 2 fold change; Dose.FC.CTG (ISC-enriched organoids [3]; Dose 2.00 uM): 0.157 log 2 fold change; Dose.FC.CTG (ISC-enriched organoids [3]; Dose 10.00 uM): 0.244 log 2 fold change
CCc1c2c(nc3ccc(OC(=O)N4CCC(N5CCCCC5)CC4)cc13)-c1cc3c(c(=O)n1C2)COC(=O)[C@]3(O)CC [Irinotecan HCl Trihydrate],−0.182,−0.831,−1.832,−2.032,−0.261,−1.020,−1.895,−2.375,−0.311,−0.747,−1.550,−1.941,−0.199,−0.491,−0.758,−1.404,−0.305,−0.694,−1.060,−1.809,
CCc1c2c(nc3ccc(OC(=O)N4CCC(N5CCCCC5)CC4)cc13)-c1cc3c(c(=O)n1C2)COC(=O)[C@]3(O)CC [Irinotecan],−0.217,−0.556,−1.415,−1.102,−0.023,−0.939,−1.596,−1.624,−0.018,−0.721,−1.400,−1.217,−0.265,−1.872,−1.875,−2.951,−0.378,−1.558,−1.491,−2.716,
Cc1ccc(C(=O)N(CCCN)[C@@H](c2nc3cc(Cl)ccc3c(=O)n2Cc2ccccc2)C(C)C)cc1 [Ispinesib (SB-715992)],−1.681,−1.354,−1.617,−1.093,−1.753,−1.914,−1.859,−1.850,−1.495,−1.509,−1.657,−1.525,−0.772,−1.238,−1.220,−1.704,−0.942,−0.971,−1.118,−1.236,Dose.FC.LYZ.NS (ISC-enriched organoids [1]; Dose 0.08 uM): −0.222 log 2 fold change; Z.LYZ.NS (ISC-enriched organoids [1]; Dose 0.08 uM): −1.931; Dose.FC.LYZ.NS (ISC-enriched organoids [1]; Dose 0.40 uM): −0.191 log 2 fold change; Z.LYZ.NS (ISC-enriched organoids [1]; Dose 0.40 uM): −1.663; Dose.FC.LYZ.NS (ISC-enriched organoids [1]; Dose 2.00 uM): −0.196 log 2 fold change; Z.LYZ.NS (ISC-enriched organoids [1]; Dose 2.00 uM): −1.709; Dose.FC.LYZ.NS (ISC-enriched organoids [1]; Dose 10.00 uM): −0.201 log 2 fold change; Z.LYZ.NS (ISC-enriched organoids [1]; Dose 10.00 uM): −1.752; Dose.FC.LYZ.S (ISC-enriched organoids [2]; Dose 0.08 uM): −0.271 log 2 fold change; Dose.FC.LYZ.S (ISC-enriched organoids [2]; Dose 0.40 uM): −0.296 log 2 fold change; Dose.FC.LYZ.S (ISC-enriched organoids [2]; Dose 2.00 uM): −0.287 log 2 fold change; Dose.FC.LYZ.S (ISC-enriched organoids [2]; Dose 10.00 uM): −0.286 log 2 fold change; Dose.FC.CTG (ISC-enriched organoids [3]; Dose 0.08 uM): −0.323 log 2 fold change; Dose.FC.CTG (ISC-enriched organoids [3]; Dose 0.40 uM): −0.518 log 2 fold change; Dose.FC.CTG (ISC-enriched organoids [3]; Dose 2.00 uM): −0.511 log 2 fold change; Dose.FC.CTG (ISC-enriched organoids [3]; Dose 10.00 uM): −0.713 log 2 fold change
CCn1c(=O)c2c(nc(/C=C/c3ccc(OC)c(OC)c3)n2C)n(CC)c1=O [Istradefylline],−0.084,−0.362,−0.012,−0.336,−0.190,−0.560,−0.621,−0.367,−0.139,−0.661,−0.578,−0.289,−0.107,0.158,−0.375,−0.091,−0.113,0.225,−0.412,−0.106,
